# Measured values from publication PMC8424629, “Chemical “Butterfly Effect” Explaining the Coordination Chemistry and Antimicrobial Properties of Clavanin Complexes” (Inorganic Chemistry, 2021).
# Like-named read-outs stand apart in the source and are kept apart here.
# How the values were obtained:
# [1] = tested on: MRSA Staphylococcus aureus ATCC 43300; conditions: ATCC 43300, 24 h
# [2] = tested on: Candida albicans ATCC 10231; conditions: ATCC 10231, 24 h
# [3] = tested on: Enterococcus faecalis ATCC 29212; conditions: ATCC 29212, 24 h
# [4] = format: binding; conditions: for log β CuH2L / log β CuH3L / log β CuH4L / log β CuH5L / log β CuH-1L / log β CuH-2L / log β CuH-3L / log β CuHL / log β CuL: Cu(II):L 1:1, 0.5 mM
# Method: (§1) All peptides ([…]-COOH, […]-COOH, […]
# (§2) were purchased from KareBay Biochem (USA) (certified purity: 98 %) and were used as received.
# (§3) The carbonate-free stock solutions of 0.1 M NaOH were purchased from Sigma-Aldrich and then potentiometrically standardized with the primary standard potassium hydrogen phthalate (99.9 % purity). […]
# (§4) Stability constants for proton, Zn(II) and Cu(II) complexes were calculated from pH -metric titration curves carried out over the pH range 2-11 at T = 298 K in water solution of 4 mM HClO 4 and ionic strength 40 mM (SDS), using a total volume of 3 ml. The potentiometric titrations were performed using a Metrohm Titrando 905 titrator and a Mettler Toledo InLab Micro comb ined pH electrode. The thermostabilized glass -cell was equipped with a magnetic stirring system, a microburette delivery tube and an inlet –outlet tube for argon.
# (§5) Solutions were titrated with 0.1 M carbonate-free NaOH. The electrodes were calibrated daily f or hydrogen ion concentration by titrating HClO 4 with NaOH under the same experimental conditions as above. The purities and the exact concentrations of the ligand solutions were determined by the Gran method. 1 The ligand concentration was 0.5 mM. The Zn(II) and Cu(II) to ligand ratio was 1 : 1.
# (§6) The standard potential and the slope of the electrode couple were computed by means of Glee 2 program. The HYPERQUAD 20063 program was used for the stability constant calculations. The standard deviations were computed by HYPERQUAD 2006 and refer to random errors only. The constants for the hydrolytic Zn(II ) species
# [5] = format: physicochemical; conditions: for log β H2L / log β H3L / log β H4L / log β H5L / log β H6L / log β HL: potentiometry pH 2-11, 298 K, 4 mM HClO4, I = 40 mM SDS, ligand 0.5 mM, SD in parentheses
# Method: as §1, §2, §3, §4, §5, §6
# [6] = tested on: Candida albicans ATCC 10231; test: microbe, parasite or virus in culture; conditions: ATCC10231, 24 h
# [7] = tested on: Escherichia coli ATCC 25922; test: microbe, parasite or virus in culture; conditions: ATCC25922, 24 h
# [8] = tested on: Enterococcus faecalis ATCC 29212; test: microbe, parasite or virus in culture; conditions: ATCC29212, 24 h
# [9] = tested on: MRSA Staphylococcus aureus ATCC 43300; test: microbe, parasite or virus in culture; conditions: 24 h
# [10] = tested on: Pseudomonas aeruginosa ATCC 27853; test: MIC, broth microdilution, reference strain; format: cell-based; conditions: ATCC27853, microdilution 0.5-256 µg/mL, TSB, 24 h, 37 °C, OD 580 nm
# [11] = tested on: Escherichia coli ATCC 25922; conditions: ATCC 25922, 24 h
# E. coli = conditions: literature describes C-amidated clavanins, cited from earlier work
# Source text: During the over 20-year study on clavanins (mainly clavanin A), various modes of action were proposed.[15],[18],[19] […] The second is observed at acidic pH (5.5) when clavanin A binds to DNA and disrupts DNA synthesis, similarly to indolicidin.[20] The third mechanism, which also occurs at pH 5.5, is assigned not to the “single” clavanin A but to its Zn(II) complex, which cleav ...
# [12] = potentiometry, 298 K, I = 40 mM SDS, SD in parentheses
# [13] = potentiometry, 298 K, I = 40 mM SDS, Zn(II):L 1:1, 0.5 mM, SD in parentheses
compound,measurement,setting,value
CC[C@H](C)[C@H](NC(=O)[C@H](CCCCN)NC(=O)CNC(=O)[C@H](CC(C)C)NC(=O)[C@H](CC(C)C)NC(=O)[C@H](Cc1c[nH]cn1)NC(=O)[C@H](Cc1ccccc1)NC(=O)[C@@H](N)C(C)C)C(=O)N[C@H](C(=O)N[C@@H](Cc1c[nH]cn1)C(=O)N[C@@H](Cc1c[nH]cn1)C(=O)N[C@H](C(=O)NCC(=O)N[C@@H](CC(N)=O)C(=O)N[C@@H](Cc1ccccc1)C(=O)N[C@H](C(=O)N[C@@H](Cc1ccc(O)cc1)C(=O)NCC(=O)N[C@@H](Cc1ccccc1)C(=O)N[C@@H](CO)C(=O)N[C@@H](Cc1c[nH]cn1)C(=O)N[C@H](C(=O)N[C@@H](Cc1ccccc1)C(=O)O)C(C)C)C(C)C)C(C)C)[C@@H](C)CC [Clavanin C],MIC,[1],128 µg/mL
same,MIC,[2],64 µg/mL
same,MIC,[3],128 µg/mL
same,"pKa, line CuH4L",[4],4.99
same,"pKa, line CuH-1L",[4],8.09
same,"pKa, line CuH-2L",[4],10.66
same,"pKa, line CuHL",[4],6.10
same,"pKa, line CuL",[4],6.98
same,"pKa, species H2L",[5],8.87
same,"pKa, species H3L",[5],8.08
same,"pKa, species H4L",[5],7.57
same,"pKa, species H5L",[5],7.10
same,"pKa, species H6L",[5],5.25
same,"pKa, species HL",[5],10.72
C[C@@H]1[C@H](O)[C@@H](C)/C=C/C=C/C=C/C=C/C=C/C=C/C=C/[C@H](O[C@@H]2O[C@H](C)[C@@H](O)[C@H](N)[C@@H]2O)C[C@@H]2O[C@](O)(C[C@@H](O)C[C@@H](O)[C@H](O)CC[C@@H](O)C[C@@H](O)CC(=O)O[C@H]1C)C[C@H](O)[C@H]2C(=O)O [amphotericin B],MIC,[6],1 µg/mL
CNC(C)C1CCC(N)C(OC2C(N)CC(N)C(OC3OCC(C)(O)C(NC)C3O)C2O)O1 (centres unmarked) [gentamicin],MIC,[7],2 µg/mL
C[C@H]1COc2c(N3CCN(C)CC3)c(F)cc3c(=O)c(C(=O)O)cn1c23 [levofloxacin],MIC,[8],4 µg/mL
same,MIC,[9],1 µg/mL
same,MIC,[10],1 µg/mL
H-AFKLLGRIIHHVGNFVYGFSHVF-OH [Clavanin D],MIC,[1],128 µg/mL
same,MIC,[2],16 µg/mL
same,MIC,[3],128 µg/mL
same,MIC,[11],64 µg/mL
same,"pKa, line CuH2L",[4],6.95
same,"pKa, line CuH3L",[4],6.00
same,"pKa, line CuH4L",[4],5.23
same,"pKa, line CuH-1L",[4],9.92
same,"pKa, line CuH-2L",[4],10.54
same,"pKa, line CuH-3L",[4],11.91
same,"pKa, line CuHL",[4],7.94
same,"pKa, line CuL",[4],8.79
same,"pKa, line ZnH2L",[4],8.22
same,log β CuH2L,[4]; [12],30.38 (2)
same,log β CuH3L,[4]; [12],37.33 (2)
same,log β CuH4L,[4]; [12],43.33 (1)
same,log β CuH5L,[4]; [12],48.56 (3)
same,log β CuH-1L,[4]; [12],3.73 (3)
same,log β CuH-2L,[4]; [12],-6.81 (4)
same,log β CuH-3L,[4]; [12],-18.72 (1)
same,log β CuHL,[4]; [12],22.44 (3)
same,log β CuL,[4]; [12],13.65 (3)
same,log β ZnH2L,[4]; [13],25.94 (2)
same,log β ZnH3L,[4]; [13],34.16 (3)
same,log β ZnH5L,[4]; [13],47.63 (12)
same,log β ZnL,[4]; [13],6.73 (14)
same,"pKa, species H2L",[5],10.08
same,"pKa, species H3L",[5],8.68
same,"pKa, species H4L",[5],7.81
same,"pKa, species H5L",[5],7.24
same,"pKa, species H6L",[5],5.26
same,"pKa, species HL",[5],11.13
same,log β H2L,[5],21.21 (4)
same,log β H3L,[5],29.89 (5)
same,log β H4L,[5],37.70 (5)
same,log β H5L,[5],44.94 (5)
same,log β H6L,[5],50.20 (5)
same,log β HL,[5],11.13 (6)
H-LFKLLGKIIHHVGNFVHGFSHVF-OH [Clavanin E],MIC,[2],32 µg/mL
same,"pKa, line CuH2L",[4],6.90
same,"pKa, line CuH3L",[4],5.96
same,"pKa, line CuH4L",[4],5.16
same,"pKa, line CuH-1L",[4],8.78
same,"pKa, line CuH-2L",[4],10.05
same,"pKa, line CuH-3L",[4],10.37
same,"pKa, line CuHL",[4],7.72
same,"pKa, line CuL",[4],8.81
same,"pKa, line ZnH2L",[4],7.18
same,"pKa, line ZnHL",[4],8.62
same,"pKa, line ZnL",[4],9.77
same,log β CuH2L,[4]; [12],29.52 (3)
same,log β CuH3L,[4]; [12],36.42 (3)
same,log β CuH4L,[4]; [12],42.38 (2)
same,log β CuH5L,[4]; [12],47.54 (3)
same,log β CuH-1L,[4]; [12],4.21 (4)
same,log β CuH-2L,[4]; [12],-5.84 (4)
same,log β CuH-3L,[4]; [12],-16.21 (5)
same,log β CuHL,[4]; [12],21.80 (3)
same,log β CuL,[4]; [12],12.99 (4)
same,log β ZnH2L,[4]; [13],25.12 (5)
same,log β ZnH3L,[4]; [13],32.30 (11)
same,log β ZnHL,[4]; [13],16.50 (6)
same,log β ZnL,[4]; [13],6.73
same,"pKa, species H2L",[5],9.19
same,"pKa, species H3L",[5],8.29
same,"pKa, species H4L",[5],7.82
same,"pKa, species H5L",[5],7.30
same,"pKa, species H6L",[5],5.55
same,"pKa, species HL",[5],10.77
same,log β H2L,[5],19.96 (3)
same,log β H3L,[5],28.25 (3)
same,log β H4L,[5],36.07 (3)
same,log β H5L,[5],43.37 (3)
same,log β H6L,[5],48.92 (4)
same,log β HL,[5],10.77 (2)
H-VFQFLGKIIHHVGNFVHGFSHVF-OH [Clavanin A],MIC,[2],128 µg/mL
same,MIC,[3],256 µg/mL
same,minimum inhibitory concentration (MIC),"E. coli; pH 5.5, with addition of Zn(II) ions",4 µM
same,minimum inhibitory concentration (MIC),"E. coli; pH 5.5, without Zn(II)",64 µM
same,"pKa, line CuH2L",[4],6.82
same,"pKa, line CuH3L",[4],6.01
same,"pKa, line CuH-1L",[4],8.82
same,"pKa, line CuH-2L",[4],9.76
same,"pKa, line CuH-3L",[4],10.16
same,"pKa, line CuHL",[4],7.56
same,"pKa, line CuL",[4],8.36
same,"pKa, line ZnH2L",[4],7.15
same,"pKa, line ZnH3L",[4],6.59
same,"pKa, line ZnHL",[4],8.53
same,"pKa, line ZnL",[4],9.36
same,log β CuH2L,[4]; [12],27.53 (3)
same,log β CuH3L,[4]; [12],34.35 (2)
same,log β CuH4L,[4]; [12],40.36 (2)
same,log β CuH-1L,[4]; [12],2.79 (3)
same,log β CuH-2L,[4]; [12],-6.97 (3)
same,log β CuH-3L,[4]; [12],-17.13 (3)
same,log β CuHL,[4]; [12],19.97 (3)
same,log β CuL,[4]; [12],11.61 (3)
same,log β ZnH2L,[4]; [13],23.99 (2)
same,log β ZnH3L,[4]; [13],31.14 (3)
same,log β ZnH4L,[4]; [13],37.74 (12)
same,log β ZnHL,[4]; [13],15.46 (2)
same,log β ZnL,[4]; [13],6.10 (7)
same,"pKa, species H2L",[5],8.88
same,"pKa, species H3L",[5],8.09
same,"pKa, species H4L",[5],7.63
same,"pKa, species H5L",[5],6.92
same,"pKa, species H6L",[5],5.32
same,"pKa, species HL",[5],10.18
same,log β H2L,[5],19.06 (6)
same,log β H3L,[5],27.15 (8)
same,log β H4L,[5],34.78 (7)
same,log β H5L,[5],41.7 (8)
same,log β H6L,[5],47.02 (10)
same,log β HL,[5],10.18 (6)
